6 compounds from ChEMBL document CHEMBL1132474, “Synthesis and biological evaluation of the first N-alkyl cage dimeric 4-aryl-1,4-dihydropyridines as novel nonpeptidic HIV-1 protease inhibitors” (J Med Chem, 1999) can be followed below.

The first test deals with T1, Human immunodeficiency virus type 1 protease (Human immunodeficiency virus 1, UniProt Q72874). The test can be described thus: compound was evaluated for the inhibition of HIV-1 protease.
For `OC[C@]12C3N(Cc4ccccc4)C4[C@](CO)(C5N(Cc6ccccc6)C1[C@]3(CO)[C@H](c1ccccc1)[C@@]45CO)[C@H]2c1ccccc1`, half-maximal inhibition (IC50) required 16.1 µM.
The compound `COc1ccc([C@H]2[C@@]3(CO)C4N(Cc5ccccc5)C5[C@]2(CO)C2N(Cc6ccccc6)C3[C@]4(CO)[C@H](c3ccc(OC)cc3)[C@@]52CO)cc1` yielded an IC50 of 33 µM.
With `OC[C@]12C3NC4[C@](CO)(C5NC1[C@]3(CO)[C@H](c1ccccc1)[C@@]45CO)[C@H]2c1ccccc1`, the IC50 amounted to 227 µM.
For the compound `COc1ccc([C@H]2[C@]3(CO)C4NC5[C@@]2(CO)C2NC3[C@@]4(CO)[C@H](c3ccc(OC)cc3)[C@]52CO)cc1`, the IC50 was 209 µM.
`CN1C2[C@]3(CO)C4N(C)C5[C@@](CO)(C1[C@@]5(CO)[C@@H](c1ccccc1)[C@]24CO)[C@H]3c1ccccc1` yielded a half-maximal inhibitory concentration (IC50) of 262 µM.
`COc1ccc([C@H]2[C@]3(CO)C4N(C)C5[C@]2(CO)C2N(C)C3[C@]4(CO)[C@H](c3ccc(OC)cc3)[C@]52CO)cc1` had an IC50 of 195 µM.

Another test addresses T1, Human immunodeficiency virus type 1 protease. Kind of test: Compound was evaluated for its binding affinity against HIV-1 protease.
For `OC[C@]12C3N(Cc4ccccc4)C4[C@](CO)(C5N(Cc6ccccc6)C1[C@]3(CO)[C@H](c1ccccc1)[C@@]45CO)[C@H]2c1ccccc1`, the Ki stood at 7.8 µM.

Broadly, the IC50 is the point on the concentration scale where inhibition reaches its midpoint. A word on the Ki: it is a measure of affinity in units of concentration, obtained from inhibition or displacement. Read a high Ki as a looser hold on the target.
